Holding throughout (assay): NCI anticancer screen, dose series, 48 h
Test [1] relates to OVCAR-3 ovarian.
Test [2] deals with DU-145 prostate.
In test [3] the test system is OVCAR-5 ovarian.
For test [4], the system named is IGROV1 ovarian.
In test [5] the test system is CCRF-CEM leukemia.
Test [6] deals with U251 CNS.
For test [7], the system named is A498 renal.
The subject of test [8] is NCI-H460 lung.
In test [9] the test system is HCC-2998 colon.
The subject of test [10] is SR leukemia.

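Where inhibition never reached the appropriate level, the endpoint shown equals the highest concentration tested. Otherwise, values were interpolated linearly from a five-concentration, 48-hour dose response in 96-well plates. GI50: concentration for 50% inhibition of growth. The concentration for full growth arrest is given as TGI.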

Consider `C#CCOc1cccc(Nc2ncnc3c(NC(=O)CCl)cccc23)c1`, for which the GI50 in test [1] is 16.5 µM; in [2], 17.2 µM; in test [3], 21.3 µM; in test [4], 17 µM; in [5], 10.7 µM; in test [6], 19.4 µM. Moreover, the GI50 in [7] is greater than 100 µM; in test [8] it was 23.7 µM; in test [9], 17.7 µM; in test [10] it was 6.06 µM. The TGI is 31.7 µM in [1]; 37.8 µM in test [2]; 57 µM in [3]; 37.9 µM in [4]; 35.9 µM in test [5]; 38.1 µM in test [6]. Besides, the TGI in test [7] was greater than 100 µM; in test [8] it was 56 µM; in [9] it was 34 µM; in test [10] it was 31.7 µM.

Take `CCN1C(=O)N(CC)C2C1NN=c1s/c(=C3\C(=O)N(CCc4ccccc4)c4ccccc43)c(=O)n12` (stereo unspecified): the GI50 in test [1] was 0.291 µM; in test [2] it was 0.558 µM; in test [3] it was 0.927 µM; in test [4], 0.672 µM; in test [5], 2.58 µM; in test [6], 0.413 µM. For the same compound, the GI50 is 0.115 µM in test [7], 0.361 µM in test [8], 1.15 µM in test [9] and 0.461 µM in test [10]. Moreover, the TGI was 0.901 µM in [1]; 6.95 µM in [2]; greater than 100 µM in test [5]; 15.6 µM in [6]; 0.603 µM in test [7]; 1.88 µM in [8]. In addition, the figures for the TGI in test [9] and in test [10] were greater than 25 µM and greater than 36.2 µM, respectively.

`CCCCn1c(=O)c2c(nc3n2CCCN3CCc2ccc(OCC(=O)NCCN(CC)CC)cc2)n(CCCC)c1=O`: the GI50 in [1] is 4.7 µM; in [2] it was 4.56 µM; in [3] it was 7.58 µM; in test [4] it was 5.83 µM; in test [5] it was 1.13 µM; in test [6], 2.14 µM. The GI50 was 0.54 µM in [7], 2.2 µM in test [8], 2.93 µM in [9] and 1.14 µM in test [10]. The TGI came to 11.2 µM in [1]; 35.3 µM in [2]; 18 µM in test [3]; 15.4 µM in [4]; 3.9 µM in test [5]; 8.1 µM in [6]. In addition, the TGI in test [7] was 2.51 µM; in test [8] it was 7.94 µM; in test [9], 9.73 µM; in test [10], 3.02 µM.

For `O=C(Oc1cccnc1)c1ccsc1Nc1ccnc(C(F)(F)F)c1`, the GI50 in [1] is 8.76 µM; in test [2], 24.6 µM; in [3] it was 4.67 µM; in test [4] it was 5.24 µM; in [5], 4.19 µM; in test [6], 3.91 µM. Further, the GI50 in test [7] was 31.1 µM; in test [8], 17.7 µM; in test [9], 11 µM; in test [10], 3.74 µM. In addition, the TGI in [1] was greater than 100 µM; in test [2], greater than 100 µM; in test [3], greater than 100 µM; in [4] it was greater than 100 µM; in test [5] it was greater than 100 µM; in test [6], 18.7 µM. In addition, the TGI in test [7] was 76.2 µM; in [8], greater than 100 µM; in [9] it was 24 µM; in test [10] it was 47.1 µM.

For the compound `N#Cc1c(N)[nH]c2ccc(Sc3ccccc3)cc12`, the TGI stood at 15.8 µM in test [1]; 15.5 µM in test [2]; 18 µM in test [3]; 8.36 µM in test [4]; 13.8 µM in test [5]; 17.5 µM in test [6]. For the same compound, the TGI in test [7] amounted to 2.04 µM; in test [8], 21.6 µM; in [9] it was 17.3 µM; in test [10], 6.25 µM.

Regarding `Cc1cc(N(CCC#N)CCC#N)ccc1/C=C1N=C(/C=C\c2ccccc2)N(c2ccc(Cl)cc2)C\1=O`, the TGI in [1], in test [2], in test [3], in test [4], in test [5] and in test [6] was greater than 100 µM each time. Also, the TGI in test [7], in [8], in [9] and in [10] was greater than 100 µM each time.

With `CC(C)=CCC/C(C)=C/CC/C(C)=C/CC/C=C(\C)CC/C=C(\C)CCC(=O)Nc1ccn(C2OC(CO)C(O)C2(F)F)c(=O)n1` (stereo unspecified), the TGI in test [1] stood at 4.48 µM; in [2], 3.23 µM; in test [3] it was 26.3 µM; in [4], 11.1 µM; in test [5] it was 0.525 µM; in test [6] it was 16.1 µM. The TGI is 18.5 µM in test [7], 3.74 µM in [8], 23 µM in test [9] and 0.374 µM in test [10]. The GI50 was 0.0455 µM in test [2]; 1.21 µM in test [3]; 0.142 µM in [4]; 0.0639 µM in test [5]; 0.0884 µM in [6]; 0.0695 µM in test [7]. Further, the GI50 is 0.0444 µM in test [8], 0.9 µM in test [9] and 0.0391 µM in test [10].

As to `COc1ccc(OC)c(Cn2cc3c(c2)-c2oncc2CC3)c1`, the GI50 is 2.29 µM in test [1]; 3.74 µM in [2]; 6.08 µM in test [3]; 3.87 µM in [4]; 2.13 µM in test [5]; 3.54 µM in test [6]. Further, the GI50 in [7] is 1.73 µM; in test [8] it was 3.26 µM; in test [9], 4.72 µM; in test [10] it was 1.16 µM. Further, the TGI in [1] is 5.98 µM; in test [2], greater than 64.3 µM; in [3] it was greater than 100 µM; in [4], greater than 100 µM; in test [5], greater than 26 µM; in test [6], greater than 100 µM. For the same compound, the TGI in [7] was 7.22 µM; in test [8], 17.7 µM; in [9], 38.1 µM; in test [10], 18.2 µM.

For the compound `CCN(Cc1ccc(Cl)s1)c1ccc(CO)c(Cl)c1`, the GI50 in [1] was 0.295 µM; in test [2] it was 12 µM; in test [3], 0.0644 µM; in [4], 0.0722 µM; in test [5], 13.1 µM; in test [6] it was 0.434 µM. Besides, the GI50 in test [7] is 0.0495 µM; in test [8], 0.202 µM; in [9], 5.81 µM; in [10], 17.6 µM. The TGI is 1.21 µM in test [1]; greater than 60.4 µM in test [2]; 0.297 µM in test [3]; 0.337 µM in test [4]; greater than 81.1 µM in test [5]; 13.2 µM in test [6]. Also, the TGI in test [7] was found to be 0.189 µM; in test [8], 10 µM; in test [9], 28.6 µM; in test [10] it was 57.1 µM.

Take `O=C1NC(=O)C(c2cccc(Cl)c2)=C1Nc1ccc(O)c(Cl)c1`: the GI50 was 7.86 µM in test [1]; 14.1 µM in [2]; 22.4 µM in test [3]; 12.9 µM in [4]; 11 µM in test [5]; 12.5 µM in test [6]. Besides, the GI50 was 11.1 µM in test [7], 8.91 µM in test [8], 24.6 µM in test [9] and 11.3 µM in test [10]. Further, the TGI in [1] is greater than 21.9 µM; in [2], greater than 25 µM; in [3], greater than 25 µM; in test [4] it was greater than 25 µM; in test [5], greater than 25 µM; in test [6] it was greater than 25 µM. The TGI in [7], in test [8], in test [9] and in test [10] was greater than 25 µM in each case.

Take `CCN1C(=O)N(CC)C2C1NN=c1s/c(=C\c3ccccc3Br)c(=O)n12` (stereo unspecified): the GI50 is 0.0266 µM in [1]; 0.0362 µM in [2]; 0.061 µM in test [3]; 0.0408 µM in test [4]; 0.0354 µM in [5]; 0.0418 µM in test [6]. Moreover, the GI50 in [7] was less than 0.0156 µM; in test [8], 0.0337 µM; in test [9], 0.0392 µM; in [10] it was 0.023 µM. Besides, the TGI in test [1] is 0.0764 µM; in test [2], greater than 38.7 µM; in test [3], greater than 48.7 µM; in [4] it was 21.8 µM; in [5] it was greater than 100 µM; in [6] it was 22.3 µM. Also, the TGI in [7] is 0.0598 µM; in test [8] it was 4.14 µM; in [9], 4.12 µM; in [10], greater than 100 µM.

Take `O=C(Nc1cccc(Nc2ncc(Br)c(NCCc3cnc[nH]3)n2)c1)N1CCCC1`: the GI50 in [1] was 4.62 µM; in test [2], 7.08 µM; in test [3] it was 9.29 µM; in [4], 3.23 µM; in test [5] it was 0.58 µM; in test [6] it was 5.22 µM. The GI50 in [7] is 4.31 µM; in [8] it was 3.68 µM; in test [9] it was 9.11 µM; in test [10], 0.527 µM. In addition, the TGI in test [1] was determined as 24.3 µM; in [2] it was 36.5 µM; in test [3], 73.1 µM; in [4], 28.8 µM; in [5], 29 µM; in test [6] it was 45.8 µM. Besides, the TGI in test [7] came out at 16.6 µM; in [8], 15 µM; in [9] it was 24.3 µM; in test [10], 28 µM.

`Cn1cncc1CC1COC(=O)C1C(O)c1ccccc1` (stereo unspecified): the TGI in test [1], in test [2], in [3], in [4], in [5] and in test [6] was greater than 100 µM each time. Besides, the TGI in test [7], in [8], in [9] and in test [10] was greater than 100 µM throughout.

Take `CC(C)(C)c1ccc(C(=O)Nc2sc3c(c2C(N)=O)CCC(=O)C3)cc1`: the GI50 in test [1] is 0.426 µM; in test [2], 2.72 µM; in test [3] it was 1.49 µM; in test [4] it was 0.684 µM; in test [5], 0.215 µM; in [6], 0.345 µM. Moreover, the GI50 in [7] was 2.83 µM; in [8], 0.586 µM; in test [9], 1.97 µM; in [10], 0.363 µM. In addition, the TGI in [1] was 1.52 µM; in [2], 11.1 µM; in [3], 3.82 µM; in [4] it was 2.29 µM; in [5] it was 3.37 µM; in [6] it was 1.43 µM. Also, the TGI in test [7] was determined as 9.04 µM; in test [8] it was 1.94 µM; in [9] it was 4.22 µM; in test [10], 10.1 µM.

Take `BrCc1ccc(CBr)cc1`: the GI50 in test [1] is 4.1 µM; in test [2], 3.38 µM; in test [3], 9.61 µM; in [4] it was 7 µM; in [5], 2.07 µM; in test [6], 6.25 µM. Moreover, the GI50 is 18.3 µM in [7], 4.84 µM in [8], 6.4 µM in test [9] and greater than 100 µM in test [10]. The TGI in test [1] was 17.4 µM; in test [2], 12.9 µM; in [3] it was 29.1 µM; in [4], greater than 87.4 µM; in [6] it was greater than 100 µM; in test [7] it was 38.1 µM. Further, the values for the TGI in test [8], in test [9] and in [10] were 17.4 µM, 15.3 µM and greater than 100 µM, respectively.

On to `CC1(C)N=C(N)N=C(N)N1c1ccc(CCCCc2ccc(S(=O)(=O)F)cc2)c(Cl)c1`, for which the GI50 in test [1] was 0.851 µM; in test [2] it was 0.484 µM; in [3] it was 0.124 µM; in test [4], 0.0592 µM; in test [5], 0.107 µM; in test [6], 0.0936 µM. The GI50 in [7] is 0.981 µM; in test [8], 0.0399 µM; in [9] it was 0.884 µM; in test [10] it was 0.051 µM. Moreover, the TGI in [1] is 17.4 µM; in test [2], 17.5 µM; in test [3], 83.8 µM; in test [4], 21.5 µM; in [5], 17.4 µM; in test [6] it was 16.4 µM. Further, the TGI is 18 µM in test [7], 12.6 µM in [8], 20.9 µM in test [9] and 23.2 µM in [10].

The values are drawn from PubChem BioAssay (NCI).
